Test results: the kinase profiling compilation of Christmann-Franck et al. (2016)

Key:
Assay in all cases: KINOMEscan competition binding
Conditions in all cases: compound 10.0 µM
LIMK2 (human) = LIMK2 (human) (UniProt P53671)
KIT (human) = KIT (human) (UniProt P10721)
NLK (human) = NLK (human) (UniProt Q9UBE8)
DAPK2 (human) = DAPK2 (human) (UniProt Q9UIK4)
STK32C (human) = STK32C (human) (UniProt Q86UX6)
PRKG1 (human) = PRKG1 (human) (UniProt Q13976)
MAP3K15 (human) = MAP3K15 (human) (UniProt Q6ZN16)
IGF1R (human) = IGF1R (human) (UniProt P08069)
AKT2 (human) = AKT2 (human) (UniProt P31751)
ACVR2A (human) = ACVR2A (human) (UniProt P27037)
NEK6 (human) = NEK6 (human) (UniProt Q9HC98)
MAPK1 (human) = MAPK1 (human) (UniProt P28482)
[1] = tested on: BRAF (human), P15056 [V600E]
PAK2 (human) = PAK2 (human) (UniProt Q13177)
[2] = molecular target: TYK2 JH1 catalytic (human) (UniProt P29597)
KDR (human) = KDR (human) (UniProt P35968)
CDC42BPA (human) = CDC42BPA (human) (UniProt Q5VT25)
[3] = tested on: PIK3CA (human), P42336 [M1043I]
MAP3K5 (human) = MAP3K5 (human) (UniProt Q99683)
PIK3C2G (human) = PIK3C2G (human) (UniProt O75747)
PIK3C2G (human), sequence (O75747 whole entry, looked up): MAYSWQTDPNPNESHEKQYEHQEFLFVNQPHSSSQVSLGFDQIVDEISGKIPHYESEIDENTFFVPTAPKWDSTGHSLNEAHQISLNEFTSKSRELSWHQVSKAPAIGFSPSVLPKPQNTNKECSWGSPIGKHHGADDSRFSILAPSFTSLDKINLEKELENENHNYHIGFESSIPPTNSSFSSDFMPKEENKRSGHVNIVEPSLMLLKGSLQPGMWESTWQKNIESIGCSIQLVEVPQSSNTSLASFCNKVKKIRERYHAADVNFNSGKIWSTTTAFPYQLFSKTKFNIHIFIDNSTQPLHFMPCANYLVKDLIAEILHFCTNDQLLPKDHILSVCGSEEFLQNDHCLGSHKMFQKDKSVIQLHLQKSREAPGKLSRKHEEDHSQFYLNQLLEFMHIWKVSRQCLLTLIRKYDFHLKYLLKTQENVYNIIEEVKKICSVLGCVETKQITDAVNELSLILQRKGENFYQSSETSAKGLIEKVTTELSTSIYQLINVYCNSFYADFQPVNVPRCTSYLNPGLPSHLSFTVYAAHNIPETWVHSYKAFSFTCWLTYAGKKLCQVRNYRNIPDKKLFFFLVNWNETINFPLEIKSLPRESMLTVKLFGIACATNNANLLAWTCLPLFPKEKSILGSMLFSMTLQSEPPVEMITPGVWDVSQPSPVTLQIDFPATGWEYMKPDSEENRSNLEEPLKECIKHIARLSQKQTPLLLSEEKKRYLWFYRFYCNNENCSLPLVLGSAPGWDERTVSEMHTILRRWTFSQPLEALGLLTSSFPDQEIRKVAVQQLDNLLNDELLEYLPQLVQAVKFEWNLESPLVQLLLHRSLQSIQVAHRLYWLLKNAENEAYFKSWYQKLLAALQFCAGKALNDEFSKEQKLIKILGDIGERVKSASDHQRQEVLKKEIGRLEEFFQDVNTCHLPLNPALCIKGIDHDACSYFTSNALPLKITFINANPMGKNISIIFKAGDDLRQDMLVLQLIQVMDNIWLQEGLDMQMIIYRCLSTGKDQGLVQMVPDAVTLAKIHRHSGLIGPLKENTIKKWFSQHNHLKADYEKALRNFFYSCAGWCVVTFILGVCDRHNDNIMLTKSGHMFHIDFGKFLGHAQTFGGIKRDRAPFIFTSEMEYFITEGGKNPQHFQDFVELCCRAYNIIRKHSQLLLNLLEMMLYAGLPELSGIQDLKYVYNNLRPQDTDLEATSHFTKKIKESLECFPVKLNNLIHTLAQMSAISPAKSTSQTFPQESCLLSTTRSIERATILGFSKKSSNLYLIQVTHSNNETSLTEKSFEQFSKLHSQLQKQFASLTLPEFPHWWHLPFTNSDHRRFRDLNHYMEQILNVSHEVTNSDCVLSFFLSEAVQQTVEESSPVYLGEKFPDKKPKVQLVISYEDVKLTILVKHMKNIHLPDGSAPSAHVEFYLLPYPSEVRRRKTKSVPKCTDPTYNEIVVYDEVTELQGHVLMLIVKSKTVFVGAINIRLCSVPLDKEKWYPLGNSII

MAP3K2 (human) = MAP3K2 (human) (UniProt Q9Y2U5)
MAP3K2 (human), sequence (Q9Y2U5 whole entry, looked up): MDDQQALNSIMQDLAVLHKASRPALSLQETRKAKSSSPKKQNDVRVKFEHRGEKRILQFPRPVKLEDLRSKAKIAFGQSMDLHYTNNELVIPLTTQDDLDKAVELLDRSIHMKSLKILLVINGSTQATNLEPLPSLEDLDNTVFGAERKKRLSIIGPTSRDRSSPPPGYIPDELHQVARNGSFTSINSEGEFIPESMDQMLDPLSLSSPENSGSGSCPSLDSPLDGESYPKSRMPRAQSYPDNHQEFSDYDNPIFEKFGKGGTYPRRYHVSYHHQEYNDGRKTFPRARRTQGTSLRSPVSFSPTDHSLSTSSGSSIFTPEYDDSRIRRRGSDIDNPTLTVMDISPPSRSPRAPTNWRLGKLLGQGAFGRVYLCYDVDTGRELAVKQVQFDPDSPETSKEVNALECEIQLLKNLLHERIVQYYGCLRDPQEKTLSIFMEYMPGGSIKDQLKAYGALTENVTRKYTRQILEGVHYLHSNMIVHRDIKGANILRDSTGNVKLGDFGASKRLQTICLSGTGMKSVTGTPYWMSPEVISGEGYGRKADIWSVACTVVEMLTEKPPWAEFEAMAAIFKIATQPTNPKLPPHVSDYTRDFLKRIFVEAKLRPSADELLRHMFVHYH

ACVR1 (human) = ACVR1 (human) (UniProt Q04771)
INSR (human) = INSR (human) (UniProt P06213)
PIP4K2B (human) = PIP4K2B (human) (UniProt P78356)
CSNK1G1 (human) = CSNK1G1 (human) (UniProt Q9HCP0)
PDGFRB (human) = PDGFRB (human) (UniProt P09619)
EIF2AK2 (human) = EIF2AK2 (human) (UniProt P19525)
MAPK12 (human) = MAPK12 (human) (UniProt P53778)
PRKAA1 (human) = PRKAA1 (human) (UniProt Q13131)
HIPK1 (human) = HIPK1 (human) (UniProt Q86Z02)
CAMK2A (human) = CAMK2A (human) (UniProt Q9UQM7)
CAMK2A (human), sequence (Q9UQM7 whole entry, looked up): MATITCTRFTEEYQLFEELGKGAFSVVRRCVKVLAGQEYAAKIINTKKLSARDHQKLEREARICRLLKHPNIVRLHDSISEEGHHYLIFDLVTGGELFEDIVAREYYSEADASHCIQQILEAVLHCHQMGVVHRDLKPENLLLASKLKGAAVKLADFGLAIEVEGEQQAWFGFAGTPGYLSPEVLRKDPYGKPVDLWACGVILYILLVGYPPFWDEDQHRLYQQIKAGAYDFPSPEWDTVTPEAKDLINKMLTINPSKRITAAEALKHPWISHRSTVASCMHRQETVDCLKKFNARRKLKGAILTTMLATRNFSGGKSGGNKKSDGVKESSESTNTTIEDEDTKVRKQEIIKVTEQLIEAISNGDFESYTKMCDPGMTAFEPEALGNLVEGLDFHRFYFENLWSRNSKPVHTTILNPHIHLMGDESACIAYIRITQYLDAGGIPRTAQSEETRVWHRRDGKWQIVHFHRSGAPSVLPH

PRKG2 (human) = PRKG2 (human) (UniProt Q13237)
[4] = tested on: ABL1 (human), P00519 [Q252H]
DCLK1 (human) = DCLK1 (human) (UniProt O15075)
DCLK1 (human), sequence (O15075 whole entry, looked up): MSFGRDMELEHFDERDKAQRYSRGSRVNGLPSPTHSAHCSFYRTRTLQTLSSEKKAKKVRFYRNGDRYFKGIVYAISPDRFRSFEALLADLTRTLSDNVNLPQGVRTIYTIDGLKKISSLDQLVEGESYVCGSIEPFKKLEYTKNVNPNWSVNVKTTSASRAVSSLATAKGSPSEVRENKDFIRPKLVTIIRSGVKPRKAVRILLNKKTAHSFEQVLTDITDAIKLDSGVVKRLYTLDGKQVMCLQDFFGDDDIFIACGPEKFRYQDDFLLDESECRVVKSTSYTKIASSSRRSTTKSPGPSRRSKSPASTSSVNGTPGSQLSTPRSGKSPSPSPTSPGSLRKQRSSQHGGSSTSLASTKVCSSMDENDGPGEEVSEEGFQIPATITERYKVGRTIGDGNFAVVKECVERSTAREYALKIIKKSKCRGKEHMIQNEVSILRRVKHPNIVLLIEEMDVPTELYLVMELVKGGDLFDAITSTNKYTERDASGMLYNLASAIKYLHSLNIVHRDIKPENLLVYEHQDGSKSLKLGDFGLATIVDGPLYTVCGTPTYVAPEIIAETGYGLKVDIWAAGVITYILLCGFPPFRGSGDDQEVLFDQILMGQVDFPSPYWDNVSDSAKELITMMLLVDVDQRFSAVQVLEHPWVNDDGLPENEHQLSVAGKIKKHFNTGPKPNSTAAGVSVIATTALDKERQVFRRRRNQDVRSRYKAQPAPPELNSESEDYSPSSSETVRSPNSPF

MAP4K2 (human) = MAP4K2 (human) (UniProt Q12851)
CDK17 (human) = CDK17 (human) (UniProt Q00537)
CDK17 (human), sequence (Q00537 whole entry, looked up): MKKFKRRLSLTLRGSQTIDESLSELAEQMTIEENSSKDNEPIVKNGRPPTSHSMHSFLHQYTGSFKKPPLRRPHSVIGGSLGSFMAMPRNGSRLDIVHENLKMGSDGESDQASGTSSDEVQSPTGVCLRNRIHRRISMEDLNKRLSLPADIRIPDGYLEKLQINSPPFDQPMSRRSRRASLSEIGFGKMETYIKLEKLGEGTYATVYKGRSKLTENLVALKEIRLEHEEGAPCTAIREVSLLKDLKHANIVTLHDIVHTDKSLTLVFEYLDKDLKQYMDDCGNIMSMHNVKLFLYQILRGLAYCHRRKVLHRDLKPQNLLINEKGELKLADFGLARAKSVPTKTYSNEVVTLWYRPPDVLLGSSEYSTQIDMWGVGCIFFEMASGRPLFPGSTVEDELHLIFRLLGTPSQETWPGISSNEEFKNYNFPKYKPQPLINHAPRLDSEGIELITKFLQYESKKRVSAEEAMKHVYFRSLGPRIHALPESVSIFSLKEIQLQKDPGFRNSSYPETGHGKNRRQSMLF

FYN (human) = FYN (human) (UniProt P06241)
STK17B (human) = STK17B (human) (UniProt O94768)
STK17B (human), sequence (O94768 whole entry, looked up): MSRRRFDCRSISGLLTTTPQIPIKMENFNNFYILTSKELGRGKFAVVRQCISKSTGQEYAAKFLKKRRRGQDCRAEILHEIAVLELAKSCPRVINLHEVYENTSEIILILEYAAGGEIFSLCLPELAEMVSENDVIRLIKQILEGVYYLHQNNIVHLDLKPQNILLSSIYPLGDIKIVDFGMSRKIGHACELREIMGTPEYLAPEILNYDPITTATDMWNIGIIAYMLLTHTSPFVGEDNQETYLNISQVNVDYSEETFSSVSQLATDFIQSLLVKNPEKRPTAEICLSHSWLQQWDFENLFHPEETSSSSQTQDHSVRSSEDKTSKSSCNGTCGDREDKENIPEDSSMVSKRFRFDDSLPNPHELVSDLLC

CDC42BPG (human) = CDC42BPG (human) (UniProt Q6DT37)
PKN2 (human) = PKN2 (human) (UniProt Q16513)
CAMK2B (human) = CAMK2B (human) (UniProt Q13554)

PRKG1 (human), sequence (Q13976 whole entry, looked up): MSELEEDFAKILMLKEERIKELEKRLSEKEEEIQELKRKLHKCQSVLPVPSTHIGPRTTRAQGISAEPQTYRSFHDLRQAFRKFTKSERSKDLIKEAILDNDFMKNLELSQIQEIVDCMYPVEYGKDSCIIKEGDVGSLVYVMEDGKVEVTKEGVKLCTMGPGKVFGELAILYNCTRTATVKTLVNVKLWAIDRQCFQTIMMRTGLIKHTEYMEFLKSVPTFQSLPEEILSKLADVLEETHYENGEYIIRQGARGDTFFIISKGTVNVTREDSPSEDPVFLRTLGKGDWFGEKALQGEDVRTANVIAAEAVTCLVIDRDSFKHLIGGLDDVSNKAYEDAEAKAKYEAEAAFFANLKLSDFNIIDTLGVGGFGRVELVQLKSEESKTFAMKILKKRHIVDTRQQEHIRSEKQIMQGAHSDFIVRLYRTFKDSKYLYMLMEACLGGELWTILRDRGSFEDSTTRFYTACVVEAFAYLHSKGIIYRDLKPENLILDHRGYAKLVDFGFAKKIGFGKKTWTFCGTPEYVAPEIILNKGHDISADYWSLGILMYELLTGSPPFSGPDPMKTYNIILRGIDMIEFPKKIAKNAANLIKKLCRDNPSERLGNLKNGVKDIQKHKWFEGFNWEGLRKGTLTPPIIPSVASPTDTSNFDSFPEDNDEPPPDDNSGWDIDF

Cc1cnc(-c2cnc(NCCNc3ccc(C#N)cn3)nc2-c2ccc(Cl)cc2Cl)[nH]1
kinase still bound, per cent of control (LIMK2 (human)): 100%
kinase still bound, per cent of control (KIT (human)): 100%
kinase still bound, per cent of control (NLK (human)): 86%
kinase still bound, per cent of control (DAPK2 (human)): 94%
kinase still bound, per cent of control (STK32C (human)): 97%
kinase still bound, per cent of control (PRKG1 (human)): 100%
kinase still bound, per cent of control (MAP3K15 (human)): 100%
kinase still bound, per cent of control (IGF1R (human)): 100%
kinase still bound, per cent of control (AKT2 (human)): 100%
kinase still bound, per cent of control (ACVR2A (human)): 100%
kinase still bound, per cent of control (NEK6 (human)): 100%
kinase still bound, per cent of control (MAPK1 (human)): 100%
kinase still bound, per cent of control [1]: 49%
kinase still bound, per cent of control (PAK2 (human)): 94%
kinase still bound, per cent of control [2]: 99%
kinase still bound, per cent of control (KDR (human)): 100%
kinase still bound, per cent of control (CDC42BPA (human)): 100%
kinase still bound, per cent of control [3]: 100%
kinase still bound, per cent of control (MAP3K5 (human)): 100%
kinase still bound, per cent of control (PIK3C2G (human)): 100%
kinase still bound, per cent of control (MAP3K2 (human)): 93%
kinase still bound, per cent of control (ACVR1 (human)): 100%
kinase still bound, per cent of control (INSR (human)): 100%
kinase still bound, per cent of control (PIP4K2B (human)): 98%
kinase still bound, per cent of control (CSNK1G1 (human)): 49%
kinase still bound, per cent of control (PDGFRB (human)): 74%
kinase still bound, per cent of control (EIF2AK2 (human)): 50%
kinase still bound, per cent of control (MAPK12 (human)): 100%
kinase still bound, per cent of control (PRKAA1 (human)): 82%
kinase still bound, per cent of control (HIPK1 (human)): 87%
kinase still bound, per cent of control (CAMK2A (human)): 89%
kinase still bound, per cent of control (PRKG2 (human)): 100%
kinase still bound, per cent of control [4]: 100%
kinase still bound, per cent of control (DCLK1 (human)): 100%
kinase still bound, per cent of control (MAP4K2 (human)): 82%
kinase still bound, per cent of control (CDK17 (human)): 100%
kinase still bound, per cent of control (FYN (human)): 100%
kinase still bound, per cent of control (STK17B (human)): 84%
kinase still bound, per cent of control (CDC42BPG (human)): 100%

COc1ccc(CNC(=O)Nc2ncc([N+](=O)[O-])s2)cc1
kinase still bound, per cent of control (LIMK2 (human)): 100%
kinase still bound, per cent of control (KIT (human)): 100%
kinase still bound, per cent of control (NLK (human)): 72%
kinase still bound, per cent of control (DAPK2 (human)): 93%
kinase still bound, per cent of control (STK32C (human)): 76%
kinase still bound, per cent of control (PRKG1 (human)): 97%
kinase still bound, per cent of control (MAP3K15 (human)): 100%
kinase still bound, per cent of control (IGF1R (human)): 100%
kinase still bound, per cent of control (AKT2 (human)): 99%
kinase still bound, per cent of control (ACVR2A (human)): 87%
kinase still bound, per cent of control (MAPK1 (human)): 100%
kinase still bound, per cent of control [1]: 49%
kinase still bound, per cent of control (PAK2 (human)): 87%
kinase still bound, per cent of control (PKN2 (human)): 78%
kinase still bound, per cent of control [2]: 100%
kinase still bound, per cent of control (KDR (human)): 67%
kinase still bound, per cent of control (CDC42BPA (human)): 100%
kinase still bound, per cent of control [3]: 100%
kinase still bound, per cent of control (MAP3K5 (human)): 71%
kinase still bound, per cent of control (PIK3C2G (human)): 100%
kinase still bound, per cent of control (CAMK2B (human)): 100%
kinase still bound, per cent of control (MAP3K2 (human)): 96%
kinase still bound, per cent of control (ACVR1 (human)): 98%
kinase still bound, per cent of control (PIP4K2B (human)): 69%
kinase still bound, per cent of control (CSNK1G1 (human)): 66%
kinase still bound, per cent of control (PDGFRB (human)): 88%
kinase still bound, per cent of control (EIF2AK2 (human)): 76%
kinase still bound, per cent of control (PRKAA1 (human)): 100%
kinase still bound, per cent of control (HIPK1 (human)): 58%
kinase still bound, per cent of control (CAMK2A (human)): 100%
kinase still bound, per cent of control (PRKG2 (human)): 100%
kinase still bound, per cent of control [4]: 100%
kinase still bound, per cent of control (DCLK1 (human)): 100%
kinase still bound, per cent of control (MAP4K2 (human)): 100%
kinase still bound, per cent of control (CDK17 (human)): 79%
kinase still bound, per cent of control (FYN (human)): 87%
kinase still bound, per cent of control (STK17B (human)): 74%
kinase still bound, per cent of control (CDC42BPG (human)): 100%

O=C1Nc2cc(Br)ccc2/C1=C1/Nc2ccccc2/C1=N\O
kinase still bound, per cent of control (LIMK2 (human)): 92%
kinase still bound, per cent of control (KIT (human)): 0.05%
kinase still bound, per cent of control (NLK (human)): 88%
kinase still bound, per cent of control (DAPK2 (human)): 2.6%
kinase still bound, per cent of control (STK32C (human)): 100%
kinase still bound, per cent of control (PRKG1 (human)): 100%
kinase still bound, per cent of control (MAP3K15 (human)): 43%
kinase still bound, per cent of control (IGF1R (human)): 83%
kinase still bound, per cent of control (AKT2 (human)): 100%
kinase still bound, per cent of control (ACVR2A (human)): 41%
kinase still bound, per cent of control (NEK6 (human)): 85%
kinase still bound, per cent of control (MAPK1 (human)): 100%
kinase still bound, per cent of control [1]: 84%
kinase still bound, per cent of control (PAK2 (human)): 40%
kinase still bound, per cent of control (PKN2 (human)): 29%
kinase still bound, per cent of control [2]: 3%
kinase still bound, per cent of control (KDR (human)): 0.9%
kinase still bound, per cent of control (CDC42BPA (human)): 70%
kinase still bound, per cent of control [3]: 100%
kinase still bound, per cent of control (MAP3K5 (human)): 100%
kinase still bound, per cent of control (PIK3C2G (human)): 100%
kinase still bound, per cent of control (CAMK2B (human)): 3.6%
kinase still bound, per cent of control (MAP3K2 (human)): 56%
kinase still bound, per cent of control (ACVR1 (human)): 32%
kinase still bound, per cent of control (INSR (human)): 72%
kinase still bound, per cent of control (PIP4K2B (human)): 1.5%
kinase still bound, per cent of control (CSNK1G1 (human)): 39%
kinase still bound, per cent of control (PDGFRB (human)): 0%
kinase still bound, per cent of control (EIF2AK2 (human)): 33%
kinase still bound, per cent of control (MAPK12 (human)): 55%
kinase still bound, per cent of control (PRKAA1 (human)): 4%
kinase still bound, per cent of control (HIPK1 (human)): 7.6%
kinase still bound, per cent of control (CAMK2A (human)): 0.8%
kinase still bound, per cent of control (PRKG2 (human)): 24%
kinase still bound, per cent of control [4]: 3.8%
kinase still bound, per cent of control (DCLK1 (human)): 99%
kinase still bound, per cent of control (MAP4K2 (human)): 8.5%
kinase still bound, per cent of control (CDK17 (human)): 12%
kinase still bound, per cent of control (FYN (human)): 1.6%
kinase still bound, per cent of control (STK17B (human)): 0%
kinase still bound, per cent of control (CDC42BPG (human)): 80%
